Patent US5981539A, “Piperidine compounds as calcium channel blockers” (Neurosearch A/S, priority 1995, dated 1999)
pIC50: −log10 of the molar value.

Target: N-type calcium channels (chick cortical synaptosomes) (Gallus gallus, UniProt A0A8V1AJW5)
Experiment: 45Ca-uptake/influx into chick cortical synaptosomes (K+ depolarization, 30 mM K+)
Format: biochemical
Settings: 30 mM K+ minus 4 mM K+, 10 sec influx, 37° C., pH 7.4, read-out: IC50 (concentration of test substance which inhibits the specific uptake of 45Ca by 50%)

Chain of N-type calcium channels (chick cortical synaptosomes) (A0A8V1AJW5 1-2349): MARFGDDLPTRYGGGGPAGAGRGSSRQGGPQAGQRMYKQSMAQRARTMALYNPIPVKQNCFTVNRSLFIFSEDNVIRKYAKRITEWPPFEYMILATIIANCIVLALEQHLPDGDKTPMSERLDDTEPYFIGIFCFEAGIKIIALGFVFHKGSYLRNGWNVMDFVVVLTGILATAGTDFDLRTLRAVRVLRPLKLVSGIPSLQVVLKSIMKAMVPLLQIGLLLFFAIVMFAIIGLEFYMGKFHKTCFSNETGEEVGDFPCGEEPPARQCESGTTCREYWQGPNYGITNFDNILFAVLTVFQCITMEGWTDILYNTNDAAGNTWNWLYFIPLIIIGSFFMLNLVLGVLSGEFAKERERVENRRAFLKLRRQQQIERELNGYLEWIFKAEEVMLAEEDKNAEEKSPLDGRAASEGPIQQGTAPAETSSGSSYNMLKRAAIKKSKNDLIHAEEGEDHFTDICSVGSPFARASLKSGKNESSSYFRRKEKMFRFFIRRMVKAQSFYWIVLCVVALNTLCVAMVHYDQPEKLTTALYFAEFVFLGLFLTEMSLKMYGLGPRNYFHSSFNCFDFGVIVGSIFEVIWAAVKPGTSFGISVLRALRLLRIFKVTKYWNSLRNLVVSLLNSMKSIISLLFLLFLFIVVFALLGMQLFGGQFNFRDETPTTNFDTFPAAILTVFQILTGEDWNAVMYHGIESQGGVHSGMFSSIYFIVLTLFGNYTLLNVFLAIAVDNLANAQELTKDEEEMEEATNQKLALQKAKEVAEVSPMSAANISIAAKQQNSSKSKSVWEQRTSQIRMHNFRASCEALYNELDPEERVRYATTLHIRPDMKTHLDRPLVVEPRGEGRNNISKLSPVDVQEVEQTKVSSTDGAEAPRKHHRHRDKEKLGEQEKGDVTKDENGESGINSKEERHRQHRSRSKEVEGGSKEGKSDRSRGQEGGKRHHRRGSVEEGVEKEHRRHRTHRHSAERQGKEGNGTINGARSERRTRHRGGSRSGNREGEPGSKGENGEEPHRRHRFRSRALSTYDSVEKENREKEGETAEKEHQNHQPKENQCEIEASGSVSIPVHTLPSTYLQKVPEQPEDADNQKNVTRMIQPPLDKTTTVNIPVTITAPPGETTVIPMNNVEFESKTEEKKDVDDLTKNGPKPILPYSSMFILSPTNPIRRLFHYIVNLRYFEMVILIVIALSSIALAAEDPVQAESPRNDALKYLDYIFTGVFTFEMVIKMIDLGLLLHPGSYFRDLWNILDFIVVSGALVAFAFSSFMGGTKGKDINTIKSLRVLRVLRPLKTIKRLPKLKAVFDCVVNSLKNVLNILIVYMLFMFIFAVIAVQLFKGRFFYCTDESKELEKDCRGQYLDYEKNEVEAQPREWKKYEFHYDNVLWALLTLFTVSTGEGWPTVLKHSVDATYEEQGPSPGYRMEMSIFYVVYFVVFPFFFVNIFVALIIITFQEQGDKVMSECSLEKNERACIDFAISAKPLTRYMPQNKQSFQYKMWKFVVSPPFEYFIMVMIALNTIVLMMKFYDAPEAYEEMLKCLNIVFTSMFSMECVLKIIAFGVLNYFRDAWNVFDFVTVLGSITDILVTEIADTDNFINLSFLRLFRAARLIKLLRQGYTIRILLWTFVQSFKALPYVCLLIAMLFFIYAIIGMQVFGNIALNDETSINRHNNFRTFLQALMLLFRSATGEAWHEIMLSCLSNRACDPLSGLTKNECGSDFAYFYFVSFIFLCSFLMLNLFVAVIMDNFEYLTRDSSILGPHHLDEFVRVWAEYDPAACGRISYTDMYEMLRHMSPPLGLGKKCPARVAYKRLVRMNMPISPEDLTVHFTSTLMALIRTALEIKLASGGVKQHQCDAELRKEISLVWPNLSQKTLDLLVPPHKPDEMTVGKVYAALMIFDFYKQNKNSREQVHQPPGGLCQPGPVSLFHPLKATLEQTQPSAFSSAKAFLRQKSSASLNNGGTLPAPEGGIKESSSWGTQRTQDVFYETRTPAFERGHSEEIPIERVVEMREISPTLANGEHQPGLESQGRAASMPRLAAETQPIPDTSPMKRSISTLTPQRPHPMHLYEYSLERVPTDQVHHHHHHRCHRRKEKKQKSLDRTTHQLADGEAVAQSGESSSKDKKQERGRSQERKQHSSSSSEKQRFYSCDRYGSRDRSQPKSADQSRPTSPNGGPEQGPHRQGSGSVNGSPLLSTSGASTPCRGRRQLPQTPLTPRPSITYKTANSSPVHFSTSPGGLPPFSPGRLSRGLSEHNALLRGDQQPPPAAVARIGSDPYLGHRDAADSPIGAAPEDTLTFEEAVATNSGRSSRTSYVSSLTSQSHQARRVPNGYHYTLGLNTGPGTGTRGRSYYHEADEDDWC

Row | Compound | pIC50
1 | CCCCCN1CC[C@H](CCOc2cccc(C)c2C)[C@H](OC)C1 (racemic) [(±)-cis-4-[2-(2,3-Dimethylphenoxy)-ethyl]-3-methoxy-N-pentylpiperidine] | 6.05
2 | CCCCCN1CC[C@H](CCOc2ccccc2Cc2ccccc2)[C@H](OC)C1 (racemic) [(±)-cis-4-[2-(2-benzylphenoxy)ethyl]-3-methoxy-N-pentylpiperidine] | 6.05
3 | CCCCCN1CC[C@H](CCOc2ccccc2-c2ccccc2)[C@H](OC)C1 (racemic) [(±)-cis-4-[2-(2-phenylphenoxy)ethyl]-3-methoxy-N-pentylpiperidine] | 6.00
4 | CCCCCN1CC[C@H](CCN(c2ccccc2)c2ccccc2)[C@H](OC)C1 (racemic) [(±)-cis-4-[2-(N,N-diphenylamino)ethyl]-3-methoxy-N-pentylpiperidine] | 5.96
5 | CCCCCN1CC[C@@H](CCOc2ccccc2Cc2ccccc2)[C@H](OC)C1 (racemic) [(±)-trans-4-[2-(2-benzylphenoxy)ethyl]-3-methoxy-N-pentylpiperidine] | 6.22
6 | CCCCCN1CC[C@@H](CCOc2ccc(Cl)c(Cl)c2)[C@H](OC(C)=O)C1 (racemic) [(±)-trans-4-[2-(3,4-Dichlorophenoxy)-ethyl]-3-acetoxy-N-pentylpiperidine] | 6.30
7 | CCCCCN1CC[C@@H](CCOc2ccc(Cl)c(Cl)c2)[C@H](OC)C1 (racemic) [(±)-trans-4-[2-(3,4-Dichlorophenoxy)-ethyl]-3-methoxy-N-pentylpiperidine] | 6.15
8 | CCCCCN1CC[C@@H](CCOc2cccc(OC(C)C)c2)[C@H](OCCOC)C1 (racemic) [(±)-trans-4-[2-(3-isopropoxyphenoxy)ethyl]-3-(2-methoxy-1-ethoxy)-N-pentylpiperidine] | 5.96
9 | CCCCCN1CC[C@@H](CCN(c2ccccc2)c2ccccc2)[C@H](OCCOC)C1 (racemic) [(±)-trans-4-[2-(N,N-diphenylamino)ethyl]-3-(2-methoxy-1-ethoxy)-N-pentylpiperidine] | 6.30
10 | CCCCCN1CC[C@@H](CCN(c2ccccc2)c2ccccc2)[C@H](OC)C1 (racemic) [(±)-trans-4-[2-(N,N-diphenylamino)ethyl]-3-methoxy-N-pentylpiperidine] | 5.89
11 | CCCCCN1CC[C@@H](Oc2ccc(Oc3ccccc3)cc2)[C@H](OCCOC)C1 (racemic) [(±)-trans-4-[4-phenoxyphenoxy]-3-(2-methoxy-1-ethoxy)-N-pentylpiperidine] | 6.21
12 | CCCCCN1CC[C@@H](Oc2ccccc2OCc2ccccc2)[C@H](OCCOC)C1 (racemic) [(±)-trans-4-[(2-benzyloxyphenoxy)]-3-(2-methoxy-1-ethoxy)-N-pentylpiperidine] | 6.05
13 | CCCCCN1CC[C@@H](SCc2ccc(Cl)cc2)[C@H](OCCOC)C1 (racemic) [(±)-trans-4-[(4-chlorobenzyl)thio]-3-(2-methoxy-1-ethoxy)-N-pentylpiperidine] | 6.00
14 | CCCCCN1CC[C@@H](CCOc2ccc(Cl)c(Cl)c2)[C@@H](OCCOC)C1 (relative stereo) [(±)-cis-4-[2-(3,4-Dichlorophenoxy)-ethyl]-3-(2-methoxy)-ethoxy-N-pentylpiperidine] | 6.52
15 | CCCCCN1CC[C@H](CCOc2ccc(Cl)c(Cl)c2)[C@@H](OCCOC)C1 (relative stereo) [(±)-trans-4-[2-(3,4-Dichlorophenoxy)-ethyl]-3-(2-methoxy)-ethoxy-N-pentylpiperidine] | 6.40

System: not given
Experiment: not given
Settings: drugs that act at both sodium and calcium channels; result in words; cited from earlier work

Row | Compound | anti-ischaemic activity in animal models
16 | Cc1ccc(-c2nc(C)c(CN3CCN(C(c4ccccc4)c4ccccc4)CC3)[nH]2)cc1 [Lifarizine] | powerful anti-ischaemic activity
17 | COc1ccc(CN2CCN(C(c3ccc(F)cc3)c3ccc(F)cc3)CC2)c(OC)c1OC [Lomerizine] | powerful anti-ischaemic activity
18 | Lanodipine | powerful anti-ischaemic activity
